According to patent US20080293640A1, “Polypeptide inhibitors of HSP27 kinase and uses therefor” (Arizona Board of Regents, A body Corporate, of the State of …, priority 2007, published 2008):

Assays:
[1] = tested on: human saphenous vein (HSV); assay: Sodium nitroprusside induced relaxation of human saphenous vein segments in a muscle bath; settings: pretreated 2 hrs with 25 μM SB203580 or 30 μM BIP; contracted with NE 0.5 μM; SNP 0-1 μM; n=3; FIG. 5
Description: Segments of human saphenous vein (HSV) were equilibrated in a muscle bath and pretreated with buffer (control), 25 μM SB203580 (SB) or 30 μM BIP for 2 hrs and then contracted with norepinephrine (NE, 0.5 μM) and relaxed with increasing doses of sodium nitroprusside (SNP, 0-1 μM).

[2] = tested on: Rat aortic smooth muscle, A7R5 cells; assay: ARS or LPA induced phosphorylation of HSP27 in A7R5 cells (western blot); assay type: cell-based; settings: BIP 1, 5 or 10 μM or SB 20 μM for 2 h prior to ARS 500 μM or LPA 25 μM for 0.5 h; FIG. 8
Description: The cells were serum starved with DMEM medium supplemented with 1% BSA and 1% penicillin/streptomycin for 24 h. The phosphorylation of HSP27 was induced using arsenite (ARS, 500 μM) or lysophosphatidic acid (LPA, 25 μM) for 0.5 h. Cells were either untreated or pre-treated with BIP (1, 5 or 10 μM) or SB (20 μM) for 2 h prior to the stimulation with ARS or LPA. Cells were frozen after treatment and analyzed by SDS-PAGE and western blot. The data are shown in FIG. 8; Panels A and B are representative western blots, while Panels C and D provide the data. The bands were quantified by densitometry, and phosphorylated HSP27 or non-phosphorylated HSP27 expressions were related to actin expression to correct for loading differences. The ratio of phosphorylated HSP27/HSP27 (relative p-HSP27/HSP27) in untreated cells was set to 1 for comparison of different blots. Data expressed as mean ±standard deviation of 4 experiments. *: p<0.05 compared to the untreated cells (C).

[3] = tested on: rat aortic smooth muscle (A7R5) cells; assay: LPA induced CTGF expression in A7R5 cells (western blot); assay type: cell-based; settings: BIP 10 or 20 μM or SB 20 μM for 2 h prior to LPA 25 μM, 24 h; FIG. 9
Description: The cells were serum starved with DMEM medium supplemented with 1% BSA and 1% penicillin/streptomycin for 24 h. Cells were either untreated (C) or pre-treated with BIP (10 or 20 μM) or SB (20 μM) for 2 h prior the stimulation with lysophosphatidic acid (LPA, 25 μM). After 24 h the cells were lysed, protein extracted and separated by SDS-PAGE and analyzed by western blotting. The data are shown in FIG. 9; Panel A is a representative western blot, while Panel B provides the data. The bands were quantified by densitometry, and CTGF expression was related to actin expression to correct for loading differences. CTGF expression in untreated cells (C) was set to 1 for comparison of different blots. Data expressed as mean ±standard deviation of 3 experiments. *: p<0.05 compared to the cells stimulated with LPA.

[4] = tested on: Human saphenous vein rings; assay: CTGF expression and phosphorylation of HSP27 in saphenous vein organ culture model (western blot); settings: BIP 5 or 10 μM, SB 20 μM; 14 days; related to actin, untreated set to 1; FIG. 7
Description: The human saphenous vein rings were cultured in RPMI medium supplemented with L-glutamine (1%), penicillin/streptomycin (1%) and FBS (30%) at 5% CO2 and 37° C. for 14 days. The rings were either untreated (Control, C) or treated with BIP (5 or 10 μM) or SB (20 μM). Rings were frozen after 14 days and protein was extracted and separated by SDS-PAGE and analyzed by western blot using the antibodies as indicated. The data is shown in FIG. 7; Panel A is a representative blot, and Panels B and C show the data summary. The bands were quantified by densitometry, and CTGF, phosphorylated HSP27 or non-phosphorylated HSP27 expressions were related to actin expression to correct for loading differences. The expression of CTGF and HSP27 and phospho-HSP27 in untreated rings was set to 1 for comparison of different blots. Data expressed as mean ±standard deviation of 6 experiments (panel right). *: p<0.05 compared to the untreated rings (C).

[5] = tested on: Human saphenous vein rings; assay: Intimal thickening in human saphenous vein rings, 14 day organ culture; settings: BIP 5 or 10 μM, SB 20 μM; 14 days; FIG. 6
Description: Human saphenous vein rings were cultured in RPMI medium supplemented with L-glutamine (1%), penicillin/streptomycin (1%) and FBS (30%) at 5% CO2 and 37° C. for 14 days. The rings were either untreated (C) or treated with BIP (5 or 10 μM), SB (20 μM) or recombinant HSP27 protein (r-HSP27). * p<0.05 compared to the control (untreated) rings. After 14 days, the rings were fixed in formalin, embedded in paraffin, sectioned at 10 micrometer and stained using Weigert's Resorcin Fuchsin. The slides were analyzed by Zeiss microscope with 40× objective. The intimal thickness was measured using Zeiss and Adobe Photoshop software.

human keloid fibroblasts [6] = assay: TGF-β1 induced stress fiber formation in human keloid fibroblasts (phalloidin microscopy); assay type: cell-based; settings: 60 μM BIP for 2 h followed by TGF-β1 1.25 ng/ml for 24 h
Description: Human keloid fibroblasts were maintained in Dulbecco's modified Eagle's medium (DMEM) supplemented with fetal calf serum (10%) and streptomycin/penicillin (1%). They were grown on cover slips and then serum-starved for 48 h. […] Cells were washed, processed for microscopy and labelled with Alexa 586-conjugated phalloidin to reveal the actin cytoskeleton and DAPI to reveal nucleus, magnification 40×.

[7] = tested on: rat aortic smooth muscle (A7R5) cells; assay: Scratch migration of A7R5 cells stimulated with LPA or TGF; assay type: cell-based; settings: BIP 10 μM for 2 h prior to LPA 25 μM or TGF 2.5 ng/mL; FIG. 10
Description: A7R5 cells were serum starved with DMEM medium supplemented with 1% BSA and 1% penicillin/streptomycin for 24 h. A scratch made in the dishes using the tip of a pipette, and the cells were rinsed 3 times with PBS. Cells were untreated (C) or pre-treated with BIP (10 μM) for 2 h prior the stimulation with lysophosphatidic acid (LPA, 25 μM) or TGF (2.5 ng/mL). *: p<0.05 compared to the cells stimulated with LPA or TGF.

human keloid fibroblasts [8] = assay: TGF-β1 induced expression of CTGF and collagen in human keloid fibroblasts (immunoblot); assay type: cell-based
Text: (§1) One important downstream signaling event in the TGFB signaling pathway is the activation of HSP27 kinase. We have designed a cell permeable inhibitor of this kinase (BIP) that effectively blocks its activity. In this study, we employ stable isotopic labeling by amino acids in cell culture (SILAC) as a means to quantitate the protein expression differences manifest during 1) TGF-β1 stimulation, 2) TGF-β1 stimulation in the presence of BIP, or 3) no treatment at all (control) in a keloid fibroblast cell line. Human keloid fibroblasts were grown to 80% confluence, and then serum-starved for 48 h. The cells were subsequently stimulated with nothing (control), with 1.25 ng/ml of transforming growth factor beta 1 (TGFβ) for 24 h, or 10 μM of a BIP for 2 h followed by TGFβ1 for 24 h (TGFβ+BIP). The expression of CTGF and collagen was assessed by immunoblot and normalized to b-actin expression. Phospho-HSP27 was expressed as a ratio to endogenous HSP27. Quantitative results represent average ±standard deviation from 3 independent experiments.
Human keloid fibroblasts were maintained in Dulbecco's modified Eagle's medium (DMEM) supplemented with fetal calf serum (10%) and streptomycin/penicillin (1%). They were grown to 80% confluence, and then serum-starved for 48 h. […] The expression of CTGF and collagen was assessed by immunoblot and normalized to GAPDH (loading control) expression. Results in the graphs (FIG. 3) represent average ±standard deviation from 3 independent experiments.
In a further example, BIP was used at lower concentrations (5 or 10 μM).

MAPKAPKII = MAPKAPKII (Homo sapiens, UniProt P49137); assay: In vitro phosphorylation of recombinant HSP27 with […] (immunoblot); assay type: biochemical; settings: MAPKAPKII 50 ng, 30 min at 30° C.; ratio P-P27 to P27, percent phosphorylation vs no inhibitor; FIG. 1
MAPKAPKII, sequence (P49137 whole entry): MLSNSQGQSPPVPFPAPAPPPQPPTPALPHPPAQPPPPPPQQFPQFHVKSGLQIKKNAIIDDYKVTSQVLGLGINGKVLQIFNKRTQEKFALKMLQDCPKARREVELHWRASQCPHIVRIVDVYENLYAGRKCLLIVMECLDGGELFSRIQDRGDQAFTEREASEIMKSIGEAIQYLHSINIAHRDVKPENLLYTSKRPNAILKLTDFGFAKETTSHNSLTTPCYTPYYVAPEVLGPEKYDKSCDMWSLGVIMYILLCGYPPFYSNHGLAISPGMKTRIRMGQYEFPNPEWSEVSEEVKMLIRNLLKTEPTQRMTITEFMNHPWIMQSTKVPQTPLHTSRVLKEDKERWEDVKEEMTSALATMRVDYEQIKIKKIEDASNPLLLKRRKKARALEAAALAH
Description: Recombinant HSP27 ([…]) was phosphorylated with no enzyme (control, lane 1), […] (50 ng) in the absence (lane 2) or presence of 200 μM ([…]) (SEQ ID NO: 44) obtained from Calbiochem, (lane 3), or BIP (HSP27 kinase inhibitor peptide, […] (SEQ ID NO: 45) (lane 4) or HSP20 phosphopeptide (PTD-P20, lane 4) for 30 min at 30° C. The reaction mixtures were inactivated and separated by SDS-PAGE and transferred to PVDF membrane. The blot was probed with antibodies against HSP27 and phospho-HSP27. The ratio of P-P27 to P27 was calculated and the percent phosphorylation was determined with respect to the phosphorylation obtained in the absence of inhibitor (lane 2). This blot is a representative of 2 separate experiments.

[9] = tested on: Human Aortic Endothelial Cells; assay: Endothelial cell proliferation (CyQuant NF Cell Proliferation Assay); assay type: cell-based; settings: 1, 10 or 50 μM BIP, 16 hours
Description: Human Aortic Endothelial Cells (Passage 2) (Cascade Biologics) were seeded into 96-well plates at a concentration of 2000 cells per well as determined using a hemocytometer and allowed to adhere for 4 hours. They were then treated with a final concentration of 1, 10 or 50 μM MK2 inhibitor peptide (BIP), 1, 10, or 50 μM scrambled peptide (SCR), or and equal volume of PBS. Cells were returned to the incubator for 16 hours and counted on a Molecular Devices M5 spectrophotometer after 1 hour treatment with CyQuant NF Cell Proliferation Assay (Invitrogen).

human keloid fibroblasts [10] = assay: TGF-β1 induced phosphorylation of HSP27 in human keloid fibroblasts (fluorescence microscopy); assay type: cell-based; settings: 60 μM BIP for 2 h followed by TGF-β1 1.25 ng/ml for 24 h
Description: Human keloid fibroblasts were maintained in Dulbecco's modified Eagle's medium (DMEM) supplemented with fetal calf serum (10%) and streptomycin/penicillin (1%). They were grown on cover slips and then serum-starved for 48 h. […] Cells were washed, processed for microscopy and labelled with Cy2 for phospho-HSP27 (ser 78/82, green fluorescence), Alexa 586-conjugated phalloidin (red) to reveal the actin cytoskeleton and DAPI (blue) to reveal nucleus, magnification 40×. Pre-treatment of cells with BIP followed by TGFb1 reduced phosphorylation of HSP27 in keloid fibroblasts.

human keloid fibroblasts [11] = assay: TGF-β1 induced phosphorylation of HSP27 in human keloid fibroblasts (immunoblot); assay type: cell-based
Text: as §1
Human keloid fibroblasts were maintained in Dulbecco's modified Eagle's medium (DMEM) supplemented with fetal calf serum (10%) and streptomycin/penicillin (1%). They were grown to 80% confluence, and then serum-starved for 48 h. […] The phosphorylation of HSP27 was assessed by immunoblot analysis using antibodies as indicated. B, The ratio of P-P27 to P27 was calculated and the percent phosphorylation was determined with respect to the phosphorylation obtained with TGF b (lane 2).
In a separate example, lower concentrations of BIP (5 μM and 10 μM) were employed. […] TGF-β1-stimulated cells were treated with BIP (5 or 10 μM) for 24 h, and HSP27 and phospho-HSP27 levels were quantified relative to β-actin expression to correct for loading differences and normalized to untreated levels.

[12] = 10 μM BIP for 2 h followed by TGFβ1 1.25 ng/ml for 24 h
[13] = 60 μM BIP for 2 h followed by TGF-β1 1.25 ng/ml for 24 h, normalized to GAPDH, FIG. 3

Compound	sodium nitroprusside induced relaxation of saphenous vein [1]	phosphorylation of HSP27 (relative p-HSP27/HSP27) [2]	LPA induced CTGF expression [3]	CTGF expression in saphenous vein [4]	phosphorylation of HSP27 in saphenous vein [4]	thickening of the intimal layer in saphenous vein [5]	central actin (human keloid fibroblasts [6])	stress fiber formation (human keloid fibroblasts [6])	migration of cells [7]	TGFβ1 induced expression of CTGF (human keloid fibroblasts [8]; [12])	TGFβ1 induced expression of collagen (human keloid fibroblasts [8]; [12])	TGF-β1 induced expression of CTGF (human keloid fibroblasts [8]; [13])	TGF-β1 induced expression of collagen (human keloid fibroblasts [8]; [13])	MAPKAPKII induced phosphorylation of HSP27 in vitro (MAPKAPKII)	EC proliferation [9]	TGF-β1 induced phosphorylation of HSP27 (ser 78/82), fluorescence microscopy (human keloid fibroblasts [10])	phosphorylation of HSP27 (phospho-HSP27 as ratio to endogenous HSP27) (human keloid fibroblasts [11]; 10 μM BIP for 2 h followed by TGFβ1 for 24 h, FIG. 2)	TGF-β1 induced phosphorylation of HSP27, immunoblot (human keloid fibroblasts [11]; 10 μM BIP for 24 h, TGF-β1-stimulated cells, relative to β-actin, normalized to untreated)	TGF-β1 induced phosphorylation of HSP27 (ratio P-P27 to P27), immunoblot (human keloid fibroblasts [11]; 60 μM BIP for 2 h followed by TGFβ-1 […] for 24 h, n=3, FIG. 4)
C[S+]([O-])c1ccc(-c2nc(-c3ccncc3)c(-c3ccc(F)cc3)[nH]2)cc1 (stereo not shown) [SB, SB 203580, reference compound]	significant increases	Inhibits	Inhibits	Inhibits	Inhibits	Inhibits	–	–	–	–	–	–	–	–	–	–	–	–	–
WLRRIKAWLRRIKALNRQLGVAA [BIP]	significant increases	inhibits	inhibits	inhibits	inhibits	inhibits	loss of central actin	reduced stress fiber formation	inhibits	inhibits	inhibits	inhibits	inhibits	inhibits	Does Not Inhibit	reduced	reduces	inhibits	effectively inhibited
